# Assay results: patent US11298364B2, “Methods and products for preventing and/or treating microorganism infections comprising iron chelators and non-iron porphyrins” (The University of Adelaide, priority 2015, dated 2022)
# Legend:
# [1] = Drug release from hydrogel into phosphate buffered saline; type: physicochemical
# Experimental: Drug release: Five millilitre of gel was prepared in a Falcon tube and allowed to solidify, after which 10 ml release medium (phosphate buffered saline, Sigma Aldrich) was added. The tube was incubated at 37° C. on a rotating platform for 20 days. […] The concentration of […] quantified by UV-Vis spectroscopy (Evolution 201 UV-Vis Spectrophotometer, Thermo Fisher Scientific, Scoresby, VIC, Australia) at 280 nm and 405 nm, respectively, by interpolating from a standard curve.
# S. aureus = experiment: Plate assay for anti-bacterial properties (agar holes filled with vehicle); type: cell-based; conditions: in vehicle: 20 mM Def and/or 200 μg/ml GaPP, 24 hours
# Experimental: To investigate the anti-bacterial properties of Def and GaPP individually, or with Def and GaPP in combination, a plate assay was used. Briefly, liquid nutrient agar was mixed with an aliquot of a S. aureus or Pseudomonas aeruginosa overnight culture and poured into Petri dishes. After the agar was solidified, holes (0.9 cm diameter) were punched into the agar and aspirated. Subsequently, the holes were filled with 200 μl of a vehicle with and without Def/GaPP. Following incubation at 37° C. for 24 hours, the inhibition diameter was assessed as a measure of efficacy against S. aureus or Pseudomonas aeruginosa bacteria.
# [2] = tested on: Nuli-1 cells (human airway epithelial cell line); experiment: LDH cell viability test; type: cell-based; conditions: 2 h
# Experimental: (§1) L929 cells (mouse fibroblast cell line) and Nuli-1 cells (human airway epithelial cell line) were obtained from ATCC (American Type Culture Collection, Manassas, Va., USA). The Nuli-1 cell line was cultured in Bronchial Epithelial Cell Growth Medium (Lonza, Australia) and L929 cells were grown in Dulbecco's Modified Eagle Medium (Sigma-Aldrich, Germany). Cells were maintained in a fully humidified incubator with 5% CO2 at 37° C.
# (§2) The lactate dehydrogenase (LDH) bioassay (Roche Diagnostics Corporation, Indianapolis, Ind., USA) was performed to assess the cytotoxic effects of Def and GaPP. Briefly, cells were seeded at 1×10^4 into each well in 100 μl in quadruplicate wells of 96-well flat-bottom plates and incubated for 24 hours (37° C., 5% CO2) to allow attachment of cells. To assess the toxicity of the dual treatment, firstly, 100 μl of Def (20 mM) was added to each well. After 2 hours incubation, cells were washed three times with PBS and were exposed to different concentrations of GaPP (100, 200, 300, 400 and 500 μg/ml) for another 2 hours. In addition, cells were separately treated with either Def or GaPP for 2 hours. The OD was measured at 490 nm.
# [3] = tested on: L929 cells (mouse fibroblast cell line); experiment: LDH cell viability test; type: cell-based; conditions: 2 h
# Experimental: as §1, §2
# [4] = tested on: planktonic S. aureus ATCC 25923; experiment: Minimal inhibitory concentration, broth microdilution (Example 1); type: cell-based, Staphylococcus aureus; conditions: 20 hours, 37° C.
# Experimental: MIC values were assessed for the individual compounds Def and GaPP against planktonic S. aureus using standard methods, specifically colony suspension method and broth microdilution as described in Wiegand, I. et al. (2008) Nat Protoc, 3(2): p. 163-75. Briefly, single colonies of S. aureus ATCC 25923 were suspended in 0.45% saline and adjusted to 0.5 McFarland units. The bacterial suspension was 1:100 diluted with nutrient broth and plated into 96-well plates. Various treatment dilutions of Def and GaPP were added, followed by incubation of the plate at 37° C. for 20 hours. The MIC was determined as the lowest drug concentration preventing turbidity.
# [5] = tested on: planktonic clinical MRSA isolate MRSA b; experiment: MIC of gel-released drugs, broth dilution (Example 6); type: cell-based, Staphylococcus aureus; conditions: MRSA b (resistant to 4 antibiotics)
# Experimental: (§3) Bacterial strains: S. aureus ATCC 25923 was purchased from American Type Culture Collection (Manassas, Va., USA). Clinical MRSA isolate strains were obtained from Adelaide Pathology Partners (Mile End, SA, Australia).
# (§4) The MIC was evaluated as the lowest drug concentration preventing bacterial growth.
# [6] = tested on: planktonic clinical MRSA isolate MRSA a; experiment: as above; type: cell-based, Staphylococcus aureus; conditions: MRSA a (resistant to 4 antibiotics)
# Experimental: as §3, §4
# [7] = tested on: planktonic clinical MRSA isolate MRSA d; experiment: as above; type: cell-based, Staphylococcus aureus; conditions: MRSA d (resistant to 7 antibiotics)
# Experimental: as §3, §4
# [8] = tested on: planktonic S. aureus ATCC 25923; experiment: as above; type: cell-based, Staphylococcus aureus; conditions: S. aureus 25923
# Experimental: as §3, §4
# [9] = tested on: planktonic clinical MRSA isolate MRSA e; experiment: as above; type: cell-based, Staphylococcus aureus; conditions: MRSA e (resistant to 9 antibiotics)
# Experimental: as §3, §4
# [10] = tested on: planktonic clinical MRSA isolate MRSA c; experiment: as above; type: cell-based, Staphylococcus aureus; conditions: MRSA c (resistant to 5 antibiotics)
# Experimental: as §3, §4
# [11] = tested on: S. aureus ATCC 25923 biofilms; experiment: S. aureus biofilm killing, 96-well biofilm, AlamarBlue viability assay; type: cell-based, Staphylococcus aureus; conditions: 2 h
# Experimental: Single colonies of S. aureus ATCC 25923 (American Type Culture Collection, Manassas, Va., USA) were immersed in 0.45% saline (Sigma Aldrich, Germany), adjusted to 1.0±0.1 McFarland units (3×10^8 colony forming units/ml), and diluted 1:15 in nutrient broth (Oxoid Ltd., England). The bacteria-broth mixture was added into 96-well plates at 150 μl per well (Costar®, Corning Incorporated, NY, USA). Incubation for 72 hours at 37° C. on a rotating plate set at 70 rpm (3D Gyratory Mixer, Ratek Instruments, Australia) assured extensive S. aureus biofilm growth.
# Biofilms were washed twice with phosphate buffered saline (PBS, Sigma Aldrich, Germany) to remove planktonic cells, before treating the biofilms with various concentrations of i) Deferiprone (“Def”; 3-hydroxy-1,2-dimethylpyridin-4(1H)-one, Sigma Aldrich, Germany), ii) Gallium-Protoporphyrin (“GAPP”; Frontier Scientific, UT, USA), iii) a concurrent combination of both compounds and iv) a consecutive combination of both compounds. To prepare the treatments, Def was dissolved in water and GaPP was dissolved in an aqueous 0.03% solution of Tween® 80 (polyoxyethylene sorbitan […], Sigma Aldrich, Germany), i.e. above the critical micelle concentration (CMC) of Tween® 80 ([…]). Controls included bacterial wells without treatment (i.e. 100% bacterial growth, negative control), blank wells without bacteria (i.e. 0% growth, positive control) and bacterial wells with Tween® 80 treatment (as a control for GaPP dilutions). After 2 hours incubation of each treatment at 37° C. on a rotating plate, a second washing step with PBS followed to remove the treatments.
# Bacterial viability was assessed using the AlamarBlue cell viability assay as described in Peeters, E. et al. (2008) Journal of Microbiological Methods, 72(2): p. 157-165. A 10% AlamarBlue dilution (Resazurin, Life Technologies, Australia) in nutrient broth was prepared and added to each well. Plates were incubated in the dark at 37° C. on a rotating plate. Fluorescence of Resorufin was measured hourly on a FLUOstar OPTIMA plate reader (BMG LABTECH, Germany). The method was set at bottom reading and fluorescence was measured at λexcitation 530 nm/λemission 590 nm. Maximum intensities were typically reached after 6 hours incubation and used for quantification according to Equation 1:
# Bacterial viability was determined as the percentage of biofilm killing (% BK), where IC represents the fluorescence intensity of the controls (i.e. 100% bacterial growth) and IT indicates the maximum intensity of the treatments. Both IC and IT were corrected by the intensity of background (i.e. 0% bacterial growth).
# [12] = Staphylococcus aureus, read-out: minimal inhibitory concentration
compound,measurement,setting,value
"Cc1c(O)c(=O)ccn1C [Def, 3-hydroxy-1,2-dimethylpyridin-4(1H)-one, reference compound]",time to complete release from hydrogel,"[1]; 37° C., PBS",48 to 72 h
same,release of Def (percentage of the original concentration in the gel),"[1]; after approximately 48-72 hours, 37° C., PBS",100%
same,anti-bacterial activity (inhibition on plate),S. aureus,relatively little anti-bacterial activity
same,cell viability (LDH assay) vs negative control,[2]; Def 20 mM,no statistically significant difference
same,cell viability (LDH assay) vs negative control,[3]; Def 20 mM,no statistically significant difference
same,MIC,"[4]; Staphylococcus aureus, ATCC25923, read-out: MIC",2500 µM
same,MIC,[5]; [12],56 µg/mL
same,MIC,[6]; [12],56 µg/mL
same,MIC,[7]; [12],56 µg/mL
same,MIC,"[8]; Staphylococcus aureus, ATCC25923, read-out: minimal inhibitory concentration",28 µg/mL
same,MIC,[9]; [12],56 µg/mL
same,MIC,[10]; [12],56 µg/mL
same,Biofilm killing (%) by single treatment Def,[11]; Def 0.5 mM,6.09%
same,Biofilm killing (%) by single treatment Def,[11]; Def 1.5 mM,7.65%
same,Biofilm killing (%) by single treatment Def,[11]; Def 5 mM,12.07%
same,Biofilm killing (%) by single treatment Def,[11]; Def 10 mM,22.88%
same,Biofilm killing (%) by single treatment Def,[11]; Def 20 mM,34.00%
same,biofilm reduction plateau,[11]; Def at concentrations above 20 mM,approximately 34%
"C=CC1=C(C)C2=[N+]3C1=Cc1c(C)c(C=C)c4[n]1[Ga-]31[n]3c(c(C)c(CCC(=O)O)c3=CC3=[N+]1C(=C4)C(C)=C3CCC(=O)O)=C2 (stereo not shown) [GaPP, gallium-protoporphyrin IX]",release of GaPP (percentage of the original concentration in the gel),"[1]; after 460 hours, 37° C., PBS",20-25%
same,incorporated GaPP released from the hydrogel,[1]; after 20 days,approximately 25%
same,anti-bacterial activity (inhibition on plate),S. aureus,significant anti-bacterial activity
same,cell viability (LDH assay) vs negative control,[2]; GaPP 500 μg/ml,induced cell toxicity
same,cell viability (LDH assay) vs negative control,[2]; GaPP 100-400 μg/ml,no significant effect
same,cell viability (LDH assay) vs negative control,[3]; GaPP 500 μg/ml,induced cell toxicity
same,cell viability (LDH assay) vs negative control,[3]; GaPP 100-400 μg/ml,no significant effect
same,MIC,[4],0.4 µg/mL
same,minimal inhibitory concentration,[5],0.74 µg/mL
same,minimal inhibitory concentration,[6],1.48 µg/mL
same,minimal inhibitory concentration,[7],1.48 µg/mL
same,minimal inhibitory concentration,[8],0.90 µg/mL
same,minimal inhibitory concentration,[9],1.48 µg/mL
same,minimal inhibitory concentration,[10],1.48 µg/mL
same,Biofilm killing (%) by single treatment GaPP,[11]; GaPP 1 μg/ml,9.04%
same,Biofilm killing (%) by single treatment GaPP,[11]; GaPP 5 μg/ml,32.18%
same,Biofilm killing (%) by single treatment GaPP,[11]; GaPP 10 μg/ml,41.99%
same,Biofilm killing (%) by single treatment GaPP,[11]; GaPP 50 μg/ml,52.90%
same,Biofilm killing (%) by single treatment GaPP,[11]; GaPP 100 μg/ml,69.86%
